Measurements from patent US12590064B2, “Substituted benzamides for inhibiting perk activity” (ELI LILLY AND COMPANY, priority 2017, dated 2026).

Assays:
[1] = target: T1, EIF2AK2 (PKR) catalytic domain (Homo sapiens, UniProt P19525); assay: TR-FRET kinase assay, PKR; format: biochemical; conditions: 2.5 μM ATP, 45 min; read-out: Enzyme IC50 PKR
T1 construct: Recombinant human EIF2AK2 (PKR) catalytic domain (amino acids 252-551); purchased Invitrogen, Carlsbad, CA
T1 sequence (P19525 252-551): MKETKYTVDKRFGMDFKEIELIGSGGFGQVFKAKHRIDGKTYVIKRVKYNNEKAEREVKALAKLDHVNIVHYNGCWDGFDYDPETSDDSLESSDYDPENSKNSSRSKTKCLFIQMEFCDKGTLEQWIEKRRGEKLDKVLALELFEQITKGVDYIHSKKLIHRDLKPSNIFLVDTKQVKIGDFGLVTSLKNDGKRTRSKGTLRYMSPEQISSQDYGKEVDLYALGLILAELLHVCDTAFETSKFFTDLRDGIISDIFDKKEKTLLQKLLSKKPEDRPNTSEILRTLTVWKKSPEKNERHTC
Experimental: (§1) Recombinant human EIF2AK2 (PKR) catalytic domain (amino acids 252-551), EIF2AK3 (PERK) catalytic domain (amino acids 536-1116), GFP-eIF2α substrate, and Terbium-labelled phospho-eIF2a antibody is obtained (Invitrogen, Carlsbad, CA). Express and purify HIS-SUMO-GCN2 catalytic domain (amino acids 584-1019) from E. coli. Perform TR-FRET kinase assays in the absence or presence of inhibitors in a reaction buffer consisting of 50 mM HEPES, pH 7.5, 10 mM MgCl2, 1.0 mM EGTA, and 0.01% Brij-35, and 100-200 nM GFP-eIF2α substrate. […] Add test compound, initiate the reaction by addition of enzyme, and incubate at room temperature for 45 minutes. Stop the reaction by addition of EDTA to a final concentration of 10 mM, add Terbium-labelled phospho-eIF2α antibody at a final concentration of 2 nM, and incubate for 90 minutes. Monitor the resulting fluorescence in an EnVison® Multilabel reader (PerkinElmer, Waltham, MA). Determine TR-FRET ratios and the resulting IC50 values using a 4-parameter nonlinear logistic equation as shown: Y=(A+((B−A)/(1+((C/x)^D)))) where, Y=% specific inhibition, A=Bottom of the curve, B=Top of the curve, C=absolute IC50 (concentration causing 50% inhibition), and D=hill slope.

[2] = target: T2, EIF2AK3 (PERK) catalytic domain (Homo sapiens, UniProt Q9NZJ5); assay: In vitro inhibition of PERK enzyme activity (isolated), TR-FRET kinase assay; format: biochemical; conditions: 1.5 μM ATP, 45 min
T2 construct: EIF2AK3 (PERK) catalytic domain (amino acids 536-1116); purchased Invitrogen, Carlsbad, CA
T2 sequence (Q9NZJ5 536-1116): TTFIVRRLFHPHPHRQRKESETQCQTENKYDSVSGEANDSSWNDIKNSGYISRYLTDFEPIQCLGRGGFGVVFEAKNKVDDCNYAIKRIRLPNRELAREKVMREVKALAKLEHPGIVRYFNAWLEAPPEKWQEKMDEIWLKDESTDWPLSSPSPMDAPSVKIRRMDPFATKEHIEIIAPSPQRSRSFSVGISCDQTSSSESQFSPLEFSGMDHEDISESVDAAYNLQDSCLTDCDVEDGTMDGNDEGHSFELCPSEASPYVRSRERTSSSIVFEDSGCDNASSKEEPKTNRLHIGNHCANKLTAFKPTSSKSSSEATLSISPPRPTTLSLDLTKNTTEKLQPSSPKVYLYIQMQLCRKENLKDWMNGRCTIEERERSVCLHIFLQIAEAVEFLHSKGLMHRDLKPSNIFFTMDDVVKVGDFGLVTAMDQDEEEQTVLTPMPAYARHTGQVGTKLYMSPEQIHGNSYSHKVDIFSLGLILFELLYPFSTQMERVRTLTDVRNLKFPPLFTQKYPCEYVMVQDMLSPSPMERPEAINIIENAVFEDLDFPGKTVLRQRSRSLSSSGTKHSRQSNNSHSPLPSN
Experimental: as §1

BxPC-3 cells = assay: In vivo inhibition of pancreatic cancer (mouse xenograft model); set-up: species or system female athymic nude mice
Experimental: Implant female athymic nude mice (Harlan Laboratories) subcutaneously with 5×10^6 BxPC-3 cells containing matrigel on the right flank and monitor tumor growth with calipers. Initiate compound dosing when tumors reach ˜250 mm^3 and dose mice twice per day by oral gavage (8 animals per group) for 28 days. Formulate compounds in 10% Acacia containing 0.05% anti-foam or 20% Captisol in 25 mM NaPO4 buffer pH […] the compounds of Examples 5 and 9, respectively. Treat control animals with Acacia vehicle alone. Estimate tumor volumes using the formula l×w^2×(π/6), where l is the larger measured diameter and w is the smaller perpendicular diameter. Calculate percent delta T/C using the formula 100×[(T−T0)/(C−C0)] and percent regression using the formula 100×[(T−T0)/T0], where T and C are mean tumor volumes in the treated and control groups, respectively. T0 and C0 are the corresponding baseline mean tumor volumes. Convert percent delta T/C to percent delta tumor growth inhibition (TGI) using the equation, 100−percent delta T/C. For statistical analysis, transform tumor volume data to log10 scale to equalize variance across time and treatment groups. Analyze the log10 volume data with a two-way repeated measures analysis of variance (Spatial Power correlation model) by time and treatment using the MIXED procedures in the SAS software package (Version 9.3). Compare treated groups to the control group at each time point.

[3] = target: T3, PERK in GripTite 293 cells expressing GFP-eIF2α (Homo sapiens, UniProt Q9NZJ5); assay: In vitro inhibition of PERK enzyme activity (whole cell), tunicamycin-induced phospho-eIF2α TR-FRET; format: cell-based; conditions: 1 h pre-treatment, Tunicamycin 1 μM 2 h
T3 construct: Add Tunicamycin (1 μM) to induce PERK activity; endogenous in cells; host or cells: GripTite 293 cells expressing GFP-eIF2α
T3 sequence (Q9NZJ5 30-1116): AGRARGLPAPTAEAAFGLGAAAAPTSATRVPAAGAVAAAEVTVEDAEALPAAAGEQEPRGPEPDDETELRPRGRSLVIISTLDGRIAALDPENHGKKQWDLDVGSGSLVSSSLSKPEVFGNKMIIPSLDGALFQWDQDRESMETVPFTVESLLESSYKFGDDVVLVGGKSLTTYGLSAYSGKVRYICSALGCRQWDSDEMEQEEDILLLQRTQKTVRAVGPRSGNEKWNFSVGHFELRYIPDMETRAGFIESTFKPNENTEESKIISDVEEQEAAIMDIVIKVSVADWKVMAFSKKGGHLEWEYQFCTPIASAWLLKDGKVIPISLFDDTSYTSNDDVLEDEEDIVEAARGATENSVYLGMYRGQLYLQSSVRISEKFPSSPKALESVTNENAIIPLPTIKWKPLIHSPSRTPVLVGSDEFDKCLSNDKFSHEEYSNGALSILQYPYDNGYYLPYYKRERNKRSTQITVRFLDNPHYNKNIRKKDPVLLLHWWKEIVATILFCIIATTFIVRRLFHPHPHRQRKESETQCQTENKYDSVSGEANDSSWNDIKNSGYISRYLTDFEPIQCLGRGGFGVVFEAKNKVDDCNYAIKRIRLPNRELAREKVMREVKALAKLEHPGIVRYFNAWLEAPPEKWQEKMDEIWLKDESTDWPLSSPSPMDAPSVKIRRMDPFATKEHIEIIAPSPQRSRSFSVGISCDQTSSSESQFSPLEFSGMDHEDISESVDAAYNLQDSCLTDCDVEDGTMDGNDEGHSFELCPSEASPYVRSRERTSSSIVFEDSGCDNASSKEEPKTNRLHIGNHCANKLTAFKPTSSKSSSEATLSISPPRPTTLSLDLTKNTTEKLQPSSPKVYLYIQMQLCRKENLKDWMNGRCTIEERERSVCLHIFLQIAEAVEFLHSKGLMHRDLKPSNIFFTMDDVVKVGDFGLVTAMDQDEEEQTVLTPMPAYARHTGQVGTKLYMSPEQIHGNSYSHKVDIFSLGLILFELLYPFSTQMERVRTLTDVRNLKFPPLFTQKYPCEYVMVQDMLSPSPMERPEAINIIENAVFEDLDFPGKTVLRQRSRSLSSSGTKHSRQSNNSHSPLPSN
Experimental: Seed GripTite™ 293 cells (Invitrogen, Carlsbad, CA) expressing GFP-eIF2α at 10,000 cells per well in 384-well plates and allow to attach overnight. Pre-treat cells with test compounds for 1 hour. Add Tunicamycin (1 μM) to induce PERK activity and incubate the plates at 37° C. for 2 hours. Remove the culture media and lyse the cells in buffer consisting of 20 mM Tris-HCl, pH 7.5, 150 mM NaCl, 5 mM EDTA, 1% NP-40, 5 mM NaF, Protease inhibitors (Sigma, St. Louis, MO), Phosphatase inhibitors (Sigma, St. Louis, MO), and 2 nM Terbium-labelled anti-phospho-eIF2 antibody (Invitrogen, Carlsbad, CA). Incubate the cell lysates for 2 hours in the dark at room temperature and monitor fluorescence in an EnVison® Multilabel reader (PerkinElmer, Waltham, MA). Determine TR-FRET ratios and the resulting IC50 values from the fitted inhibition curves using un-induced (100% inhibition) and induced (0% inhibition) wells as controls.

[4] = 30 mg/kg PO BID group, day 21 post-implant (before start of treatment)
[5] = 30 mg/kg PO BID group, day 24 post-implant (before start of treatment)
[6] = 30 mg/kg PO BID group, day 32 post-implant (before start of treatment)
[7] = 30 mg/kg PO BID group, day 35 post-implant (before start of treatment)
[8] = 30 mg/kg PO BID group, day 39 post-implant (before start of treatment)
[9] = 30 mg/kg PO BID group, day 47 post-implant (before start of treatment)
[10] = 30 mg/kg PO BID group, day 52 post-implant (day of randomization and start of treatment)
[11] = 30 mg/kg PO BID, day 60 post-implant
[12] = 30 mg/kg PO BID, day 67 post-implant
[13] = 30 mg/kg PO BID, day 72 post-implant
[14] = 30 mg/kg PO BID, day 74 post-implant
[15] = 30 mg/kg PO BID, day 76 post-implant
[16] = 30 mg/kg PO BID, day 79 post-implant

Compound Cc1cc(NC(=O)[C@H](O)c2cc(F)cc(F)c2)ccc1-c1cnc(N)c(C(=O)NC(C)C)c1 [Example 1, 2-amino-5-[4-[[(2R)-2-(3,5-difluorophenyl)-2-hydroxy-acetyl]amino]-2-methyl-phenyl]-N-isopropyl-pyridine-3-carboxamide] has an IC50 [1] greater than 20000 nM and an IC50 [2] of 2.2 ± 1.2 nM.
Work on CNC(=O)c1nc(-c2ccc(NC(=O)[C@H](O)c3cc(F)cc(F)c3)cc2C)cnc1N [Example 5, 3-amino-6-[4-[[(2R)-2-(3,5-difluorophenyl)-2-hydroxy-acetyl]amino]-2-methyl-phenyl]-N-methyl-pyrazine-2-carboxamide] yielded a Mean tumor volume (BxPC-3 cells; [4]) of 123.9 mm^3, a Mean tumor volume (BxPC-3 cells; [5]) of 132.8 mm^3 and a Mean tumor volume (BxPC-3 cells; [6]) of 143.4 mm^3. It also gave a Mean tumor volume (BxPC-3 cells; [7]) of 174.6 mm^3, a Mean tumor volume (BxPC-3 cells; [8]) of 183.8 mm^3 and a Mean tumor volume (BxPC-3 cells; [9]) of 213.7 mm^3. It also gave a Mean tumor volume (BxPC-3 cells; [10]) of 252.0 mm^3, a Mean tumor volume (BxPC-3 cells; [11]) of 311.8 mm^3 and a T/C (BxPC-3 cells; [11]) of 71.5%. The “TGI (Tumor Growth Inhibition)” value (BxPC-3 cells; [11]) was 28.5%, the Mean tumor volume (BxPC-3 cells; [12]) was 387.8 mm^3 and the T/C (BxPC-3 cells; [12]) was 55.8%. The “TGI (Tumor Growth Inhibition)” value (BxPC-3 cells; [12]) was 44.2%, the Mean tumor volume (BxPC-3 cells; [13]) was 435.0 mm^3 and the T/C (BxPC-3 cells; [13]) was 52.7%. The “TGI (Tumor Growth Inhibition)” value (BxPC-3 cells; [13]) was 47.3%, the Mean tumor volume (BxPC-3 cells; [14]) was 487.5 mm^3 and the T/C (BxPC-3 cells; [14]) was 50.7%. The “TGI (Tumor Growth Inhibition)” value (BxPC-3 cells; [14]) was 49.3%, the Mean tumor volume (BxPC-3 cells; [15]) was 528.8 mm^3 and the T/C (BxPC-3 cells; [15]) was 54.5%. The “TGI (Tumor Growth Inhibition)” value (BxPC-3 cells; [15]) was 45.5%, the Mean tumor volume (BxPC-3 cells; [16]) was 593.2 mm^3 and the T/C (BxPC-3 cells; [16]) was 47.7%. The “TGI (Tumor Growth Inhibition)” value (BxPC-3 cells; [16]) was 52.3% and the IC50 [1] was greater than 20000 nM.
For Cc1cc(NC(=O)[C@H](O)c2cccc(F)c2)ccc1-c1cn(C)c2ncnc(N)c12 [Example 9, (2R)—N-[4-(4-amino-7-methyl-pyrrolo[2,3-d]pyrimidin-5-yl)-3-methyl-phenyl]-2-(3-fluorophenyl)-2-hydroxy-acetamide], the Mean tumor volume (BxPC-3 cells; [4]) was 111.9 mm^3, the Mean tumor volume (BxPC-3 cells; [5]) was 134.3 mm^3 and the Mean tumor volume (BxPC-3 cells; [6]) was 153.7 mm^3. It also gave a Mean tumor volume (BxPC-3 cells; [7]) of 162.6 mm^3, a Mean tumor volume (BxPC-3 cells; [8]) of 167.1 mm^3 and a Mean tumor volume (BxPC-3 cells; [9]) of 196.4 mm^3. The Mean tumor volume (BxPC-3 cells; [10]) was 244.2 mm^3, the Mean tumor volume (BxPC-3 cells; [11]) was 284.8 mm^3 and the T/C (BxPC-3 cells; [11]) was 40.8%. The “TGI (Tumor Growth Inhibition)” value (BxPC-3 cells; [11]) was 59.2%, the Mean tumor volume (BxPC-3 cells; [12]) was 317.2 mm^3 and the T/C (BxPC-3 cells; [12]) was 27.4%. The “TGI (Tumor Growth Inhibition)” value (BxPC-3 cells; [12]) was 72.6%, the Mean tumor volume (BxPC-3 cells; [13]) was 380.5 mm^3 and the T/C (BxPC-3 cells; [13]) was 37.3%. For the same compound, the “TGI (Tumor Growth Inhibition)” value (BxPC-3 cells; [13]) was 62.7%, the Mean tumor volume (BxPC-3 cells; [14]) was 418.3 mm^3 and the T/C (BxPC-3 cells; [14]) was 36.0%. The “TGI (Tumor Growth Inhibition)” value (BxPC-3 cells; [14]) was 64.0%, the Mean tumor volume (BxPC-3 cells; [15]) was 480.4 mm^3 and the T/C (BxPC-3 cells; [15]) was 45.1%. For the same compound, the “TGI (Tumor Growth Inhibition)” value (BxPC-3 cells; [15]) was 54.9%, the Mean tumor volume (BxPC-3 cells; [16]) was 541.6 mm^3 and the T/C (BxPC-3 cells; [16]) was 40.5%. For the same compound, the “TGI (Tumor Growth Inhibition)” value (BxPC-3 cells; [16]) was 59.5%, the IC50 [3] was 28 ± 11 nM and the IC50 [2] was 2.4 ± 1 nM.
